In ChEMBL document CHEMBL5291721, “A preclinical secondary pharmacology resource illuminates target-adverse drug reaction associations of marketed drugs” (Nat Commun, 2023) one finds AC50 data, which are given here for 17 molecules.

The target of experiment [1] is Epidermal growth factor receptor (Homo sapiens, UniProt P00533). The experiment is classed as functional.
For experiment [2], the target named is T1, Gamma-aminobutyric acid receptor subunit alpha-1/alpha-2/beta-2/gamma-2 (Homo sapiens, UniProt P14867+P18507+P47869+P47870). The experiment is classed as functional, cell-based.
T1 sequence (P14867 whole entry): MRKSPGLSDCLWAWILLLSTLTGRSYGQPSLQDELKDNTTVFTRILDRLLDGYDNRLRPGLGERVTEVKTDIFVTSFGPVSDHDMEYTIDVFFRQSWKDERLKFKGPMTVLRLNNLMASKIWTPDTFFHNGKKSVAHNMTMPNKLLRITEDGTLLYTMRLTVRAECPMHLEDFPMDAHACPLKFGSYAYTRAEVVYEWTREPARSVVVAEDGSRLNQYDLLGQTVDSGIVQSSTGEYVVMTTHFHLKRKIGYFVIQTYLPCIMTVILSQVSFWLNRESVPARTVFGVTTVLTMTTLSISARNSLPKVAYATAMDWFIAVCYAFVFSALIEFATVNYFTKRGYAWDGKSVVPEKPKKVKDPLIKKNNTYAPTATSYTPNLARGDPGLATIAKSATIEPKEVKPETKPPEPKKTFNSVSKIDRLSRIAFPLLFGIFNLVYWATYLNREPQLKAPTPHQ
T1 sequence (P47870 whole entry): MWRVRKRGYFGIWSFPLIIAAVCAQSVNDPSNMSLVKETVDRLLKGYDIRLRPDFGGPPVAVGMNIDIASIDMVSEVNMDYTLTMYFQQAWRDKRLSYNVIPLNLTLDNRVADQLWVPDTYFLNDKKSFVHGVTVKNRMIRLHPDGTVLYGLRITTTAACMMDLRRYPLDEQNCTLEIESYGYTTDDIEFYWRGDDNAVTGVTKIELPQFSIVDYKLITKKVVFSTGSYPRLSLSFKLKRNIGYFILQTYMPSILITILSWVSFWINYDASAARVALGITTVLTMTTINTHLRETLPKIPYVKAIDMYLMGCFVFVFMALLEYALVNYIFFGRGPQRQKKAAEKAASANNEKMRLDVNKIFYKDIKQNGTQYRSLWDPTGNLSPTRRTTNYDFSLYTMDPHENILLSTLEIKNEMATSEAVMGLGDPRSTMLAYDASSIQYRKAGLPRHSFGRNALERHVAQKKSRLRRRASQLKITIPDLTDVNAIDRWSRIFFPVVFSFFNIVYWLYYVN
T1 sequence (P18507 whole entry): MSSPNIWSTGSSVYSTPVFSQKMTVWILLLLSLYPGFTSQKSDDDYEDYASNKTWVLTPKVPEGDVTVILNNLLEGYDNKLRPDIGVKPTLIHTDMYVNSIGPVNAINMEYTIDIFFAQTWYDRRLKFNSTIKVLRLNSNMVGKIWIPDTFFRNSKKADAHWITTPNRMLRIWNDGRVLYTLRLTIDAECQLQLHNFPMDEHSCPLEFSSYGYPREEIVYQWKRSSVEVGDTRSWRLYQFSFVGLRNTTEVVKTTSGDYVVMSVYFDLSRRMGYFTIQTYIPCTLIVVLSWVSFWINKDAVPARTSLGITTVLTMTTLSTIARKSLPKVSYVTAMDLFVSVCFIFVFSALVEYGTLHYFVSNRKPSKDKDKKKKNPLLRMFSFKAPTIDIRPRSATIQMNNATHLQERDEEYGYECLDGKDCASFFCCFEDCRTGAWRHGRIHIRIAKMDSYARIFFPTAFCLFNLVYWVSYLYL
T1 sequence (P47869 whole entry): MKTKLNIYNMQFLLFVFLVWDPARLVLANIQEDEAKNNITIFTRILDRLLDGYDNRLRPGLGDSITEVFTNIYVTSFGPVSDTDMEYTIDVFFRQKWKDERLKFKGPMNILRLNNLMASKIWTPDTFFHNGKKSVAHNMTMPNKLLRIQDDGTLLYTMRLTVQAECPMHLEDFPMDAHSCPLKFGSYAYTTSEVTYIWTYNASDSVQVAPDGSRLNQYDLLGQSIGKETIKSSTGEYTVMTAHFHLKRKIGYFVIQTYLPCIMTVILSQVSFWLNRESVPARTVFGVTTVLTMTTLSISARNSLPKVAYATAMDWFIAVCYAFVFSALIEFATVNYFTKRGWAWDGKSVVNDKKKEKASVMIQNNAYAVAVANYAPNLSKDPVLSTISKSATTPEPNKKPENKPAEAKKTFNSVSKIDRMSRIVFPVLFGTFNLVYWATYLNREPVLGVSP
For a further experiment, the target named is T2, Glucocorticoid receptor (Homo sapiens, UniProt P04150).
T2 sequence (P04150 whole entry): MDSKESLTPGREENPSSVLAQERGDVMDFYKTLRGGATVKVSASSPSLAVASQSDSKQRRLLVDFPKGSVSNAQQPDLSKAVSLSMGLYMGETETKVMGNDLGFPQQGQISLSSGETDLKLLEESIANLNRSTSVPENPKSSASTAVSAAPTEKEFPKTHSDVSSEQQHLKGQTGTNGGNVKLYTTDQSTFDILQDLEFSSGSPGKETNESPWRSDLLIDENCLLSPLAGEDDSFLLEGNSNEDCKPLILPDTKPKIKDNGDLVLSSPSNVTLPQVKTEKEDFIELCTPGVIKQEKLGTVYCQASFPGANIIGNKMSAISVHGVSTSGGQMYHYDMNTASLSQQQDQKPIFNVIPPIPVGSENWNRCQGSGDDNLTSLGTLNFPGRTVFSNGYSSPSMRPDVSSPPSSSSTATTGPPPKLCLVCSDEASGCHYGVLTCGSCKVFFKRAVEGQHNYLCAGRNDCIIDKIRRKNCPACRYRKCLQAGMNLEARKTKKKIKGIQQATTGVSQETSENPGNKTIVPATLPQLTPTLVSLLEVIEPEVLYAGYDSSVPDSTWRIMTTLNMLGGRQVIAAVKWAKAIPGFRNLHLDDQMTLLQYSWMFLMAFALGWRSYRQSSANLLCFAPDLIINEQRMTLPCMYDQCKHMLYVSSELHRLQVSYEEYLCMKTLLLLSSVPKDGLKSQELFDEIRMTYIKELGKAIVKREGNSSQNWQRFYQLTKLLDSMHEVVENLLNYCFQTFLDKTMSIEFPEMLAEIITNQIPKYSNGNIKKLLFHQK
It is filed as functional.

Experiment [3] addresses T3, Peroxisome proliferator-activated receptor gamma (Homo sapiens, UniProt P37231).
T3 sequence (P37231 whole entry): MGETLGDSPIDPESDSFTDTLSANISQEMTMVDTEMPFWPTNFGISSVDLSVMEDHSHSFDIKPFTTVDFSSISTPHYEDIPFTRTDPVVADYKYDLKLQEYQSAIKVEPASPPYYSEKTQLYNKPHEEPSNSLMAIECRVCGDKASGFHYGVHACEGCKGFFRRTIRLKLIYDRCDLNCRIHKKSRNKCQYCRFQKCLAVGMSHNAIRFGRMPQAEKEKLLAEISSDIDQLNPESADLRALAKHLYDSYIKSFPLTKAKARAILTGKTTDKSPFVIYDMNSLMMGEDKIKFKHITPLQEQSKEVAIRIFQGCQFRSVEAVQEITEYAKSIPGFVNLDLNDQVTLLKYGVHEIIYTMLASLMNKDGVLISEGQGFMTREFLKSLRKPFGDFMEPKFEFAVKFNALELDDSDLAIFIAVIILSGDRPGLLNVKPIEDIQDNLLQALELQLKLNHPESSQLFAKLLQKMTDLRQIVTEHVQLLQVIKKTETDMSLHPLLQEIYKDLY
It is filed as functional.

In experiment [4] the target is Voltage-dependent N-type calcium channel subunit alpha-1B (Rattus norvegicus, UniProt Q02294). It is filed as functional.
The target in experiment [5] is T1, Gamma-aminobutyric acid receptor subunit alpha-1/alpha-2/beta-2/gamma-2. The experiment is classed as protein-complex assay.
In another experiment the target is Histamine H2 receptor (Homo sapiens, UniProt P25021).
Chain of Histamine H2 receptor (P25021 whole entry): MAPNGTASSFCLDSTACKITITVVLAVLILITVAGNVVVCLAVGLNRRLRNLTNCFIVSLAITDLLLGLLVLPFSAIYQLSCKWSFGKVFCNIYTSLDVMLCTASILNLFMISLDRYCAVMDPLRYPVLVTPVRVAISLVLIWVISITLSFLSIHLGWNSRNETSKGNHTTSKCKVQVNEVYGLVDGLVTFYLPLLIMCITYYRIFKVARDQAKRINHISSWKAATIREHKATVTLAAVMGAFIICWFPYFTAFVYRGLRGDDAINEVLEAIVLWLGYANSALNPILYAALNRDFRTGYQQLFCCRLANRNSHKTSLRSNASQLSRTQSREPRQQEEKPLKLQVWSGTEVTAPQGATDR
The target of experiment [6] is T4, Alpha-2A adrenergic receptor (Homo sapiens, UniProt P08913).
T4 sequence (P08913 whole entry): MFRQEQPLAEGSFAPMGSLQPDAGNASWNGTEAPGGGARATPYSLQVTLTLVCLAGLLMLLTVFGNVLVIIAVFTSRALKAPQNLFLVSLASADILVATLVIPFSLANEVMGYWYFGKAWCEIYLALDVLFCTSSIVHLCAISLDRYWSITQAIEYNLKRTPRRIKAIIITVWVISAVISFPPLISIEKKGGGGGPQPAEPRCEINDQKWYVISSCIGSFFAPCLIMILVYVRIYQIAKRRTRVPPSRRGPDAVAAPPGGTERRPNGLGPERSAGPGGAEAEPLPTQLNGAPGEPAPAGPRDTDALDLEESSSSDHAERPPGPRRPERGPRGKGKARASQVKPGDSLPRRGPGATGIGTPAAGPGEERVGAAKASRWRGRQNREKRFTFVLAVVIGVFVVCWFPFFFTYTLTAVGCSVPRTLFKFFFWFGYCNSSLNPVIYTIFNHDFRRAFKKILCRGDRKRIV

The target of the next experiment is T5, Estrogen receptor (Homo sapiens, UniProt P03372).
T5 sequence (P03372 whole entry): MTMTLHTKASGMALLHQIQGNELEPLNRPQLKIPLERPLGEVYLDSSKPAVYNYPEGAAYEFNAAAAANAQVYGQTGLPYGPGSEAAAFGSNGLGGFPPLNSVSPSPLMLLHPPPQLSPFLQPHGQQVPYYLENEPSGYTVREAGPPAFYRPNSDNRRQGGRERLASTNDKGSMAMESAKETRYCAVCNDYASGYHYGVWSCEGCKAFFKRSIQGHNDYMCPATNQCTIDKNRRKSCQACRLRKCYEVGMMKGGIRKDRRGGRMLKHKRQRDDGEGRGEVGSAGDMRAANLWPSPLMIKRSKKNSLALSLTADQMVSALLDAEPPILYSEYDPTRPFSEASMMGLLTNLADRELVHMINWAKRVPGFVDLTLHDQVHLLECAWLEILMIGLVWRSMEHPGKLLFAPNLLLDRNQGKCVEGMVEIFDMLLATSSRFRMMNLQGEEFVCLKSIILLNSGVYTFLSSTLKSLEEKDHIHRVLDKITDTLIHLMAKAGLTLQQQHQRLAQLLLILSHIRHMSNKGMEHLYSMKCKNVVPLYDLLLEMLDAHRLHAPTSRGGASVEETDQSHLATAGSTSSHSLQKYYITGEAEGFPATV
Note: assay procedure not described here.

Chain of Epidermal growth factor receptor (P00533 whole entry): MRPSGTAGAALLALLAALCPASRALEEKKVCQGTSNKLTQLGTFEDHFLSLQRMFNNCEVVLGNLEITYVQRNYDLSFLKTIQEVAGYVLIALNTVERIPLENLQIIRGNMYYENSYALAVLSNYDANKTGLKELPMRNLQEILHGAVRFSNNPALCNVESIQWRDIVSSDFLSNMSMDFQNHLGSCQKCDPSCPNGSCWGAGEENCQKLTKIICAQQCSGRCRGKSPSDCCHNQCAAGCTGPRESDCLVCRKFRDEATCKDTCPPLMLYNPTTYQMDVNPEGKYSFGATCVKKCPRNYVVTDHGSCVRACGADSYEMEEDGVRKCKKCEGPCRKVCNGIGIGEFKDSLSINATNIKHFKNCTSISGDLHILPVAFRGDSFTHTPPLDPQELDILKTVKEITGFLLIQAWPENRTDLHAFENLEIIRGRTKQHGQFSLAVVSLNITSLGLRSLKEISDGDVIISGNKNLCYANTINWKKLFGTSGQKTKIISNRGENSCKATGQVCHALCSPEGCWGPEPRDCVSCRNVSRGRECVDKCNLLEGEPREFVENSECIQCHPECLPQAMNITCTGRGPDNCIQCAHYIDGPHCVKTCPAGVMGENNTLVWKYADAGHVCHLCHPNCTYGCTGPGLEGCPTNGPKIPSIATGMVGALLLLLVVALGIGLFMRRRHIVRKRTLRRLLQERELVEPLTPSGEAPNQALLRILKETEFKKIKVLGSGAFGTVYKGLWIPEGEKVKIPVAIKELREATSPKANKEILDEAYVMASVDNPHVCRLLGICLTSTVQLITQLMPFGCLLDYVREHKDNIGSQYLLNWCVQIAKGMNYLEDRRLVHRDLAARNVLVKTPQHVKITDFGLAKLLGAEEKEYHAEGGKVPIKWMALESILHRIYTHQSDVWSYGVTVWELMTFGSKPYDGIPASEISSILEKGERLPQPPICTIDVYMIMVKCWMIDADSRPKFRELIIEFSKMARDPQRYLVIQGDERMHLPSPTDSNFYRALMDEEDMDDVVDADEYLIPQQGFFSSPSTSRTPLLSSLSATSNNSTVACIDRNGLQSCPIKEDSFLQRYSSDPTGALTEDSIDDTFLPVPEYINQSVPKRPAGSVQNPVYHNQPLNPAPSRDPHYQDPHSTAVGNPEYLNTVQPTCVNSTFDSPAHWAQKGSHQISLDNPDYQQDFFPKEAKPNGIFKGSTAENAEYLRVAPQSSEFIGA

Usually AC50 stands for the concentration giving half of the maximal activity seen. `CN(C)CCC=C1c2ccccc2C(C)(C)c2ccccc21`: the concentration at half-maximal activity (AC50) (in [1]; in experiment [2]; on Glucocorticoid receptor; in experiment [3]) was more than 30 µM in each case.

As for `NCC(CC(=O)O)c1ccc(Cl)cc1` (stereo unspecified) [BACLOFEN], the concentration at half-maximal activity (AC50) is more than 10 µM in [4]; more than 30 µM in [1]; more than 30 µM in [2]; more than 30 µM in [5]; more than 10 µM at Histamine H2 receptor; more than 30 µM on Glucocorticoid receptor. In addition, the results for the AC50 in [3] and in experiment [6] were more than 30 µM and more than 10 µM, respectively.

As to `CC(C)C[C@H]1C(=O)N2CCC[C@H]2[C@]2(O)O[C@](NC(=O)[C@@H]3C=C4c5cccc6[nH]c(Br)c(c56)C[C@H]4N(C)C3)(C(C)C)C(=O)N12` [BROMOCRIPTINE], the AC50 in experiment [4] is more than 10 µM; in [1], more than 30 µM; in experiment [2], more than 30 µM; on Histamine H2 receptor, 1.69 µM; at Glucocorticoid receptor, more than 30 µM; in experiment [3], more than 30 µM.

As to `O=C1Nc2ccc(Cl)cc2[C@@](C#CC2CC2)(C(F)(F)F)O1` [EFAVIRENZ], the figures for the AC50 (on Estrogen receptor; at Glucocorticoid receptor; in [3]) were more than 30 µM, more than 30 µM and 18 µM, respectively.

Regarding `O=C(OCC(O)CO)c1ccccc1Nc1ccnc2cc(Cl)ccc12` (stereo unspecified) [GLAFENINE], the AC50 in experiment [1], in experiment [2], in [5] and in [3] was more than 30 µM each time.

As for `c1ccc([C@H]2CN3CCSC3=N2)cc1` [LEVAMISOLE], the AC50 (in experiment [1]; in [2]; on Glucocorticoid receptor; in experiment [3]) was more than 30 µM each time.

As to `C[C@H]1CNCCc2ccc(Cl)cc21` [LORCASERIN], the concentration at half-maximal activity (AC50) (in [1]; in experiment [2]; on Glucocorticoid receptor; in experiment [3]) was more than 30 µM throughout.

In the case of `C[C@@H](O)[C@H]1C(=O)N2C(C(=O)O)=C(S[C@@H]3CN[C@H](C(=O)N(C)C)C3)[C@H](C)[C@H]12` [MEROPENEM], the AC50 (in experiment [1]; in [2]; at Glucocorticoid receptor; in experiment [3]) was more than 300 µM in each case.

Take `CNC1Cc2ccccc2N(C)c2ccccc21` (stereo unspecified) [METAPRAMINE]: the AC50 (in [1]; in experiment [2]; on Glucocorticoid receptor; in experiment [3]) was more than 30 µM each time.

For `COc1ccc(CC(C)(C)NC[C@H](O)c2cc(O)cc3c2OCC(=O)N3)cc1` [OLODATEROL], the half-maximal activity concentration (AC50) (in [1]; in experiment [2]; on Glucocorticoid receptor; in experiment [3]) was more than 30 µM each time.

For the molecule `CCCN1C[C@H](CSC)C[C@@H]2c3cccc4[nH]cc(c34)C[C@H]21` [PERGOLIDE], the AC50 in experiment [4] was more than 10 µM; in [1] it was more than 30 µM; at Estrogen receptor, more than 30 µM; in [2], more than 30 µM; on Histamine H2 receptor, 3.77 µM; on Glucocorticoid receptor, more than 30 µM. In experiment [3], this molecule yielded an AC50 of more than 30 µM.

Regarding `C1CCC(C(CC2CCCCN2)C2CCCCC2)CC1` (stereo unspecified) [PERHEXILINE], the concentration at half-maximal activity (AC50) (in [1]; in [2]; on Glucocorticoid receptor; in [3]) was more than 30 µM each time.

Turning to `c1cnc(N2CCN(Cc3ccc4c(c3)OCO4)CC2)nc1` [PIRIBEDIL], the concentration at half-maximal activity (AC50) (in experiment [1]; in [2]; at Glucocorticoid receptor; in experiment [3]) was more than 30 µM in each case.

On to `COCCCN1CCC(NC(=O)c2cc(Cl)c(N)c3c2OCC3)CC1` [PRUCALOPRIDE], for which the half-maximal activity concentration (AC50) (in [2]; at Glucocorticoid receptor; in experiment [3]) was more than 30 µM throughout.

Consider `Cc1c(C(=O)NN2CCCCC2)nn(-c2ccc(Cl)cc2Cl)c1-c1ccc(Cl)cc1` [RIMONABANT], for which the half-maximal activity concentration (AC50) was more than 10 µM in experiment [4]; more than 30 µM in experiment [1]; more than 30 µM at Estrogen receptor; more than 30 µM in experiment [2]; 10.9 µM at Histamine H2 receptor; more than 30 µM on Glucocorticoid receptor. Further, the results for the half-maximal activity concentration (AC50) in experiment [3] and in experiment [6] were 17 µM and more than 10 µM, respectively.

For the molecule `Cn1nnc2c(C(N)=O)ncn2c1=O` [TEMOZOLOMIDE], the half-maximal activity concentration (AC50) in [4] was more than 10 µM; in [1], more than 30 µM; at Estrogen receptor, more than 30 µM; in experiment [2], more than 30 µM; at Histamine H2 receptor, more than 10 µM; in experiment [3], more than 30 µM. The same molecule displayed an AC50 in experiment [6] of more than 10 µM.

On to `N[C@@H]1[C@H]2CN(c3nc4c(cc3F)c(=O)c(C(=O)O)cn4-c3ccc(F)cc3F)C[C@@H]12` [TROVAFLOXACIN], for which the AC50 (in experiment [2]; at Glucocorticoid receptor; in experiment [3]) was more than 30 µM throughout.
